Measurements as given in patent US20250019369A1, “N-(4-aminocyclohexyl)pyrimidine-4-carboxamide derivatives as CD38 inhibitors” (Cerevance, Inc., priority 2021, published 2025).
Counter-ions that a name gives are not always drawn. Like-named read-outs stand apart in the source and are kept apart here.

What was measured:
Recombinant mouse CD38 = Recombinant mouse CD38 (Mus musculus (Mouse), UniProt P56528); experiment: Mouse CD38 hydrolase assay (fluorescence, ε-NAD substrate); assay type: biochemical; conditions: recombinant mouse CD38 0.4 nM, 12 μM ε-NAD, 30 min preincubation at 25° C., pH 7.4
Protocol: (§1) The ability of test compounds to inhibit mouse CD38 hydrolase activity was measured in a fluorescence-based assay using non-physiological NAD^+ substrate analogue 1,N^6-etheno NAD^+ (ε-NAD). Recombinant mouse CD38 (0.4 nM) was preincubated with test compounds in 384-well black microplates for 30 min at 25° C. in PBS (—Ca^2+/Mg^2+) containing 0.005% BSA (pH 7.4). CD38 hydrolase activity was initiated by addition of 12 μM ε-NAD, which yields the fluorescent product 1,N^6-etheno ADP-ribose. Formation of fluorescent product was followed using ClarioStar Plus (BMG) microplate reader by reading fluorescence (excitation λ=300 nm; emission λ=410 nm) at two time points, one immediately after substrate addition (t=0) and one at 6 min (t=6).
(§2) Data was analysed by subtracting the values detected at t=0 from t=6 to correct for variation in baseline fluorescence, and fluorescence values were converted to percent inhibition using the average of high signal (CD38 and ε-NAD) and low signal (CD38 and ε-NAD in the presence of a tool CD38 inhibitor) control wells. IC50 values were determined from a 10-point, half log concentration response curve with a four-parameter logistic equation.

Recombinant human CD38 = Recombinant human CD38 (Homo sapiens (Human), UniProt P28907); experiment: Human CD38 hydrolase assay (fluorescence, ε-NAD substrate); assay type: biochemical; conditions: recombinant human CD38 0.8 nM, 4 μM ε-NAD, 30 min preincubation at 25° C., pH 7.4
Protocol: as §1, with “inhibit human” for “inhibit mouse”, “Recombinant human” for “Recombinant mouse”, “CD38 (0.8” for “CD38 (0.4”, “of 4” for “of 12”, “at 10” for “at 6”, “min (t=10).” for “min (t=6).”
as §2, with “t=10” for “t=6”, “fluorescence. Fluorescence” for “fluorescence, and fluorescence”

[1] = PK brain permeability in C57BL/6 mice after single oral gavage; assay type: in vivo; conditions: 2 hours post dose; for concentration at 2 h: po, 10 mg/kg
Protocol: The distribution of compounds into the brain in vivo was determined in C57BL/6 mice following single oral (po) gavage administration.
Test compounds were formulated at 1 mg/mL in 0.5% HPMC E4 M, 0.2% Tween 80 in water to achieve solutions or homogenous suspensions suitable for po administration.
Formulations were administered to 3 male C57BL/6 mice at a volume of 10 mL/kg resulting in a dose level of 10 mg/kg. Blood samples were collected at 1 and 2 hours post dose into tubes containing K2EDTA as anticoagulant, processed to plasma and stored at −60° C. or lower until LC-MS/MS analysis. Brains were harvested 2 hours post dose, rinsed with saline, dried, weighed and homogenised under ice cold conditions. Brain homogenates were stored at −60° C. or lower until LC-MS/MS analysis.
Dose formulation concentrations were verified using a LC-UV or LC-MS/MS method. Test compound concentrations in plasma and brain homogenate were quantitatively determined using LC-MS/MS methods developed in individual matrices against calibration curves with QC samples included and acceptance criteria as per CRO SOPs. Concentrations in brain homogenate were corrected for the dilution factor used to prepare the homogenate to give concentrations in whole brain tissue.
Plasma and brain concentration versus time data were reported and plotted in excel. The brain to plasma ratio at 2 hours post dose was calculated for each animal using the following equation:
Brain:plasma=brain concentration (ng/g) at 2 h/plasma concentration (ng/mL) at 2 h
As only unbound test compound is available to exert an effect on the target, unbound plasma (Cp,u) and unbound brain (Cb,u) concentrations were calculated by correcting the total concentrations for the unbound fraction in plasma (fu,p) or brain (fu,b) determined from in vitro plasma protein or brain tissue binding assays using the following equations: […]
The unbound partitioning coefficient (Kpu,u) was then calculated based on the ratio of Cb,u to Cp,u using the following equation: […]
In these studies, mice were orally administrated a 10 mg/kg dose and sacrificed 2 hours post dose and tissue samples (brain homogenate and plasma) were analyzed subsequently as described above.

Recombinant human CD38, sequence (P28907 whole entry): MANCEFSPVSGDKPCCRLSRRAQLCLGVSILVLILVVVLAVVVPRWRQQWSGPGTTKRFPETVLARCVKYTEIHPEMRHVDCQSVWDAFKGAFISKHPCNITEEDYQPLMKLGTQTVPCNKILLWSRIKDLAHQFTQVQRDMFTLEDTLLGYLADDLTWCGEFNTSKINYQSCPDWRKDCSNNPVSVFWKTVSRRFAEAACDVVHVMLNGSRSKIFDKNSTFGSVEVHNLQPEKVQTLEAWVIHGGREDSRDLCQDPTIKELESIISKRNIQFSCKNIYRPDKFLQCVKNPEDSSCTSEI
Recombinant mouse CD38, sequence (P56528 whole entry): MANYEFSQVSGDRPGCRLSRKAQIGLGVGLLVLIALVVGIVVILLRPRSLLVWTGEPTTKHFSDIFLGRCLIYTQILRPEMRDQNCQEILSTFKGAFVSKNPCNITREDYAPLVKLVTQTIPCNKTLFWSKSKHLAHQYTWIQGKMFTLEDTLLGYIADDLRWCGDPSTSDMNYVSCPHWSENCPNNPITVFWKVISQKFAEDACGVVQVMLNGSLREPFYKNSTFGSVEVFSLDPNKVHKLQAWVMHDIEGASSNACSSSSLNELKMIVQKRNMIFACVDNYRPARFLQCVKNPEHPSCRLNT

Structure (SMILES)	IC50 (Recombinant mouse CD38) [nM]	IC50 (Recombinant human CD38) [nM]	also measured
Cc1cc(C(=O)N[C@H]2CC[C@H](NCC(F)(F)F)CC2)nc(-c2cncs2)n1 [Example 5, 6-methyl-2-(thiazol-5-yl)-N-((1r,4r)-4-((2,2,2-trifluoroethyl)amino)cyclohexyl)pyrimidine-4-carboxamide]	≤ 40	≤ 1000	–
CCc1cc(C(=O)N[C@H]2CC[C@H](NCC(F)(F)F)CC2)nc(-n2ccnc2)n1 [Example 6, 6-ethyl-2-(1H-imidazol-1-yl)-N-((1r,4r)-4-((2,2,2-trifluoroethyl)amino)cyclohexyl)pyrimidine-4-carboxamide]	≤ 40	≤ 100	–
Cc1cc(C(=O)N[C@H]2CC[C@H](N(C)CC(F)(F)F)CC2)nc(-n2ccnc2)n1 [Example 7, 2-(1H-imidazol-1-yl)-6-methyl-N-((1r,4r)-4-(methyl(2,2,2-trifluoroethyl)amino)cyclohexyl)pyrimidine-4-carboxamide]	–	≤ 100	–
Cc1cc(C(=O)N[C@H]2CC[C@H](NCCF)CC2)nc(-n2ccnc2)n1 [Example 9, N-((1r,4r)-4-((2-fluoroethyl)amino)cyclohexyl)-2-(1H-imidazol-1-yl)-6-methyl-pyrimidine-4-carboxamide formate]	≤ 40	≤ 1000	–
Cc1cc(C(=O)N[C@H]2CC[C@H](NCC(F)(F)F)CC2)nc(-c2cn[nH]c2)n1 [Example 14, 6-methyl-2-(1H-pyrazol-4-yl)-N-((1r,4r)-4-((2,2,2-trifluoroethyl)amino)cyclohexyl)pyrimidine-4-carboxamide]	≤ 1000	–	–
O=C(N[C@H]1CC[C@H](NCC(F)F)CC1)c1cc(C2CC2)cc(-n2ccnc2)n1 [Example 16, 4-cyclopropyl-N-((1r,4r)-4-((2,2-difluoroethyl)amino)cyclohexyl)-6-(1H-imidazol-1-yl)picolinamide]	≤ 40	≤ 1000	–
CCN[C@H]1CC[C@H](NC(=O)c2cc(C)nc(-n3ccnc3)n2)CC1 [Example 19, N-((1r,4r)-4-(ethylamino)cyclohexyl)-2-(1H-imidazol-1-yl)-6-methyl-pyrimidine-4-carboxamide Formate]	≤ 40	≤ 100	–
Cc1cc(C(=O)N[C@H]2CC[C@H](N[C@@H](C)C(F)(F)F)CC2)nc(-n2ccnc2)n1 [Example 22, 2-(1H-imidazol-1-yl)-6-methyl-N-((1S,4r)-4-(((S)-1,1,1-trifluoropropan-2-yl)amino)cyclohexyl)pyrimidine-4-carboxamide]	≤ 40	≤ 40	–
Cc1cc(C(=O)N[C@H]2CC[C@H](NCC(F)(F)F)CC2)nc(-n2cncc2C)n1 [Example 24, 6-methyl-2-(5-methyl-1H-imidazol-1-yl)-N-((1r,4r)-4-((2,2,2-trifluoroethyl)amino)cyclohexyl)pyrimidine-4-carboxamide]	≤ 40	≤ 100	–
Cc1cc(C(=O)N[C@H]2CC[C@H](CNCC(F)(F)F)CC2)nc(-n2ccnc2)n1 [Example 25, 2-(1H-imidazol-1-yl)-6-methyl-N-((1r,4r)-4-(((2,2,2-trifluoroethyl)amino)methyl)cyclohexyl)pyrimidine-4-carboxamide]	≤ 40	≤ 40	–
Cc1cc(C(=O)N[C@H]2CC[C@H](C(=O)NCC(F)(F)F)CC2)nc(-n2ccnc2)n1 [Example 26, 2-(1H-imidazol-1-yl)-6-methyl-N-((1r,4r)-4-((2,2,2-trifluoroethyl)carbamoyl)cyclohexyl)pyrimidine-4-carboxamide]	≤ 40	≤ 40	–
O=C(N[C@H]1CC[C@H](NCC(F)(F)F)CC1)c1nc(-n2ccnc2)nc2cc[nH]c12 [Example 29, 2-(1H-imidazol-1-yl)-N-((1r,4r)-4-((2,2,2-trifluoroethyl)amino)cyclohexyl)-5H-pyrrolo[3,2-d]pyrimidine-4-carboxamide, reference compound]	–	–	concentration at 2 h ([1]; male, C57BL/6, mouse, brain, read-out: total brain conc.): 1770 nM; concentration at 2 h ([1]; male, C57BL/6, mouse, brain, total corrected for unbound fraction in brain, read-out: free brain conc.): 224 nM; Kpu,u (unbound brain/plasma partition coefficient) at 2 h ([1]; male, C57BL/6, mouse, brain/plasma, oral 10 mg/kg, read-out: Kpu,u (unbound partitioning coefficient, Cb,u/Cp,u)): 0.18; concentration at 2 h ([1]; male, C57BL/6, mouse, plasma, read-out: total plasma conc.): 11100 nM; concentration at 2 h ([1]; male, C57BL/6, mouse, plasma, total corrected for unbound fraction in plasma, read-out: free plasma conc.): 1260 nM; brain exposure (in words) ([1]; oral 10 mg/kg, comment on Table 3, with lower Kpu,u values): much reduced brain exposure

Continued, in another order:

IC50 (Recombinant mouse CD38) [nM]	IC50 (Recombinant human CD38) [nM]	Structure (SMILES)	also measured
≤ 40	–	Cc1cc(C(=O)N[C@H]2CC[C@H](NCC(F)(F)F)CC2)nc(-c2cncn2C)n1 [Example 4, 6-methyl-2-(1-methyl-1H-imidazol-5-yl)-N-((1r,4r)-4-((2,2,2-trifluoroethyl)amino)cyclohexyl)pyrimidine-4-carboxamide]	–
–	≤ 1000	Cc1cc(C(=O)N[C@H]2CC[C@H](NCC(F)F)CC2)nc(-c2cncs2)n1 [Example 8, N-((1r,4r)-4-((2,2-difluoroethyl)amino)cyclohexyl)-6-methyl-2-(thiazol-5-yl)pyrimidine-4-carboxamide]	–
–	≤ 10000	Cc1cc(C(=O)N[C@H]2CC[C@@H](N3CCC(F)(F)C3)CC2)nc(-n2ccnc2)n1 [Example 11, N-((1s,4s)-4-(3,3-difluoropyrrolidin-1-yl)cyclohexyl)-2-(1H-imidazol-1-yl)-6-methyl-pyrimidine-4-carboxamide]	–
≤ 40	≤ 100	Cc1cc(C(=O)N[C@H]2CC[C@H](N3CC[C@H](F)C3)CC2)nc(-n2ccnc2)n1 [Example 12, N-((1s,4r)-4-((S)-3-fluoropyrrolidin-1-yl)cyclohexyl)-2-(1H-imidazol-1-yl)-6-methyl-pyrimidine-4-carboxamide]	–
≤ 40	≤ 100	Cc1cc(C(=O)N[C@H]2CC[C@H](N3CC[C@@H](F)C3)CC2)nc(-n2ccnc2)n1 [Example 13, N-((1r,4r)-4-((R)-3-fluoropyrrolidin-1-yl)cyclohexyl)-2-(1H-imidazol-1-yl)-6-methyl-pyrimidine-4-carboxamide]	–
≤ 1000	≤ 10000	Cc1cc(C(=O)N[C@H]2CC[C@H](NCC(F)F)CC2)nc(-c2cn[nH]c2)n1 [Example 15, N-((1r,4r)-4-((2,2-difluoroethyl)amino)cyclohexyl)-6-methyl-2-(1H-pyrazol-4-yl)pyrimidine-4-carboxamide]	–
≤ 40	≤ 100	O=C(N[C@H]1CC[C@H](NCC(F)(F)F)CC1)c1cc(C2CC2)cc(-n2ccnc2)n1 [Example 20, 4-cyclopropyl-6-(1H-imidazol-1-yl)-N-((1r,4r)-4-((2,2,2-trifluoroethyl)amino)cyclohexyl)picolinamide]	–
≤ 40	≤ 40	Cc1cc(C(=O)N[C@H]2CC[C@H](N[C@H](C)C(F)(F)F)CC2)nc(-n2ccnc2)n1 [Example 23, 2-(1H-imidazol-1-yl)-6-methyl-N-((1R,4r)-4-(((R)-1,1,1-trifluoropropan-2-yl)amino)cyclohexyl)pyrimidine-4-carboxamide]	–
